Measured values reported in US20230364057A1, “BACTERIAL DNA GYRASE INHIBITORS AND METHODS OF USE THEREOF” (THE FLORIDA INTERNATIONAL UNIVERSITY BOARD OF TRUSTEES, priority 2022, published 2023).
Values after ≈ are worked out from the molar mass of the structure shown. Read-outs that look alike come from different tables or passages of the source.

How the values were obtained:
[1] = biological target: T1, E. coli DNA gyrase (Escherichia coli (strain K12), UniProt P0AES4+P0AES6); assay: biochemical; assay type: biochemical; settings: for IC50: bin of Table 2
[2] = test system: E. coli (ATCC 25922); assay: Minimum inhibitory concentration, broth microdilution; settings: Escherichia coli
Procedure: (§1) Antibacterial minimum inhibitory concentrations (MICs) were obtained from three independent experiments using broth microdilution methods in 96-well plates according to Clinical and Laboratory Standards Institute guidelines. Cells were culture from singles colonies in MHIIB medium for 24 h at 37° C. in agitation (200 RPM). The cultures were then diluted using the same media to reach an OD600 of 0.1. Then, 50 µL of the diluted cultures were added to the plates holding 50 µL of serially diluted compounds in MHIIB. The plates were incubated at 37° C. for 20 h. The starting inoculum was fixated to 10^5 colony-forming units per ml.

[3] = test system: MRSA; assay: as above; settings: Staphylococcus aureus, MRSA, read-out: Minimum Inhibitory Concentration S.aureus MRSA
[4] = test system: S. aureus (ATCC 14775); assay: as above; settings: Staphylococcus aureus
[5] = biological target: T1, E. coli DNA gyrase; assay: Agarose gel-based DNA gyrase inhibition assay; assay type: biochemical
Procedure: 100 ng of DNA gyrase was used to supercoil the rx pAB1 in the presence of different concentrations of a gyrase inhibitor. […] Samples were analyzed by electrophoresis in 1% w/v agarose gels followed by ethidium bromide staining and photographed under UV light.

[6] = test system: B. subtilis (ATCC 6633); assay: Minimum inhibitory concentration, broth microdilution; settings: Bacillus subtilis, ATCC6633, read-out: Minimum Inhibitory Concentration B.subtilis
Procedure: as §1

[7] = biological target: T1, E. coli DNA gyrase; assay: DNA gyrase mediated DNA cleavage assay; assay type: biochemical; settings: pBR322
Procedure: 250 ng of supercoiled pBR322 plasmid were incubated with 50 nM of E. coli DNA gyrase in reactions containing 35 mM Tris-HCl, 24 mM KCl, 4 mM MgCl2, 2 mM DTT, 0.1 mg/mL BSA, 6.5% glycerol, and 1.75 mM ATP, in presence of 200 µM of compounds, at 37° C. for 15 min. Then, 0.2% (w/v) of SDS and 0.1 mg/mL proteinase K were added, and samples were incubated at 37° C. for 1 h. […] Samples were examined by electrophoresis in 1% w/v agarose gel containing 0.5 µg/mL ethidium bromide and photographed under UV light.

[8] = in vitro; settings: mouse
[9] = in vitro; settings: human
[10] = test system: M. abscessus; assay: MIC against M. abscessus; assay type: cell-based, Mycobacterium abscessus; settings: Mycobacteroides abscessus
[11] = biological target: Mtb DNA gyrase (Mycobacterium tuberculosis (strain ATCC 25618 / H37Rv), UniProt P9WG45+P9WG47); assay: Mtb DNA gyrase inhibition assay (gel-based); assay type: biochemical; settings: Table 10; read-out: IC50 (µM) Mtb gyrase
Procedure: The IC50 against E. coli (A) and Mtb (C) gyrase were determined using the gel-based gyrase inhibition assays. The gyrase mediated DNA cleavage assays (B and D) were performed using pBR322. (A) 229 inhibits E. coli gyrase. Lane 1, rx pAB1. […] Lane 1, rx pAB1. […] 100 µM of CPDs were used. Symbols rx, nk, In, and sc represent relaxed, nicked, linear, and supercoiled DNA, respectively.
Agarose gel-based DNA gyrase inhibition assays were performed in 30 µL of 1 ×gyrase buffer (35 mM Tris-HCl, 24 mM KCl, 4 mM MgCl2, 2 mM DTT, 1.75 mM ATP, 0.1 mg/mL BSA, 6.5% glycerol, pH7.5) containing 400 ng of rx pAB1 at 37° C. 100 ng of DNA gyrase was used to supercoil the rx pAB1 in the presence of different concentrations of a gyrase inhibitor. After 15 minutes of incubation with the inhibitor at 37° C., all reactions were stopped with 1 µL of stop solution (3% SDS and 250 mM EDTA). Samples were analyzed by electrophoresis in 1% w/v agarose gels followed by ethidium bromide staining and photographed under UV light.

[12] = test system: Mtb; assay: Mtb whole cell assay (% inhibition, MIC); assay type: cell-based, Mycobacterium tuberculosis; settings: Mycobacterium tuberculosis
[13] = biological target: E. coli DNA topoisomerase IV (Escherichia coli (strain K12), UniProt P0AFI2+P20083); assay: E. coli DNA topoisomerase IV relaxation assay (gel-based); assay type: biochemical; settings: IC50 Topoisomerase IV Gel-based, Table 8
Chain of E. coli DNA topoisomerase IV (P0AFI2 whole entry, looked up): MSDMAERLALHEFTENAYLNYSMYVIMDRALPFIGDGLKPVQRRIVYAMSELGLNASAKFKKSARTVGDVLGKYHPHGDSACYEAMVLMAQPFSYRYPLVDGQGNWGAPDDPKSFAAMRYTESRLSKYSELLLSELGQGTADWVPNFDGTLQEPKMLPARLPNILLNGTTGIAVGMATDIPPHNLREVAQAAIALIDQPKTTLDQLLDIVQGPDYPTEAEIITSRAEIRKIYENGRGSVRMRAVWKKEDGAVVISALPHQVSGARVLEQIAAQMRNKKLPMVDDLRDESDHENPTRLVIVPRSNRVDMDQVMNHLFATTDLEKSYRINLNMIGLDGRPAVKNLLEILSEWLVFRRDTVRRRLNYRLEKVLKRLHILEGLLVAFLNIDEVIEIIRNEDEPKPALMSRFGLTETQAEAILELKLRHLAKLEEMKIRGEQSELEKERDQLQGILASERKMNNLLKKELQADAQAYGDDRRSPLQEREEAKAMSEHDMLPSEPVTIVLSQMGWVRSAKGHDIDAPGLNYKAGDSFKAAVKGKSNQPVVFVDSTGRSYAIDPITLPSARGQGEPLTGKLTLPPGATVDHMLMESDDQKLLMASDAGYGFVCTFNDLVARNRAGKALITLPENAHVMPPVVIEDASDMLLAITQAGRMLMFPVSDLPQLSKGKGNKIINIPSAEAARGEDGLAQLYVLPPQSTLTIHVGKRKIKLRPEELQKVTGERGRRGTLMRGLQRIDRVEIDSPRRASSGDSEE
Chain of E. coli DNA topoisomerase IV (P20083 whole entry, looked up): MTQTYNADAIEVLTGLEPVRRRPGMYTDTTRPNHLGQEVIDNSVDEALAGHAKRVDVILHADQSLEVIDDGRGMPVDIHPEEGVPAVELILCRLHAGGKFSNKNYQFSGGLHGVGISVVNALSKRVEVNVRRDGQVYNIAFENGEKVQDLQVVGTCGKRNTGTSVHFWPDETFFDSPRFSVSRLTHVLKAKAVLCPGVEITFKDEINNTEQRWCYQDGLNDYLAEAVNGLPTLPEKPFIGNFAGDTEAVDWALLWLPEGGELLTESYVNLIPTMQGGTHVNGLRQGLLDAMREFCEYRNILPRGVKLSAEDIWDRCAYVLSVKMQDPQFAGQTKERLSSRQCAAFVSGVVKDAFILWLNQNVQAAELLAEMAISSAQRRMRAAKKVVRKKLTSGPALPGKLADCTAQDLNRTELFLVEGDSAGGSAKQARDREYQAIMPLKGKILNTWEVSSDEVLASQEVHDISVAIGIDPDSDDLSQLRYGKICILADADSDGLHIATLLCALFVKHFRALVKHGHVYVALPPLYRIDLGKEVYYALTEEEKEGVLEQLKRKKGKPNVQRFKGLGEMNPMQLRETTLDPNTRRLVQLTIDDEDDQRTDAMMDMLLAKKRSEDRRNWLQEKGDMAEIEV
Procedure: Relaxation assays by E. coli DNA topoisomerase IV and the ATPase assays were performed. […] Lane 1 is supercoiled plasmid pAB1. […] The supercoiled, fluorescently-labeled plasmid pAB1_FL905 was used.

[14] = ATCC25922, read-out: MIC (µM) Ec, E. coli strain ATCC25922
[15] = ATCC14775, read-out: MIC (µM) Sa

Compound | inhibition of E. coli DNA gyrase activities ([5]; 50 µM of compounds) | IC50 [9] [µM] | MIC [2, 14] [µM] | MIC [4, 15] [µM] | MIC [10] [µM] | IC50 [11] [µM] | MIC [12] [µM] | also measured
CCn1c(N)[n+](CC(=O)Nc2ccc(SC(F)F)cc2)c2ccccc21.[Cl-] [Compound 135] | completely inhibited | – | – | – | – | – | – | IC50 ([1]; IC50 (15-[…] µM)): 15 to 25 µM; MIC ([2]; ATCC25922, read-out: Minimum Inhibitory Concentration E. coli, Tables 3a-3c): 200 µM; MIC [3]: 50 µM; MIC ([4]; ATCC14775, read-out: Minimum Inhibitory Concentration S.aureus): 50 µM; MIC [6]: 50 µM
O=C(O)CCNc1ccc(NCCC(=O)O)c2c1C(=O)c1ccccc1C2=O [Compound 173, 3-({4-[(2-carboxyethyl)amino]-9,10-dioxo-9,10-dihydroanthracen-1-yl}amino)propanoic acid] | completely inhibited | – | – | – | – | – | – | IC50 ([1]; IC50 (15-[…] µM)): 15 to 25 µM; MIC [3]: 100 µM (≈ 38.2 µg/mL); E. coli DNA gyrase-mediated DNA breaks and nicking [7]: cause DNA nicking
COc1cc(/C=N/N=c2\[nH]c3ccccc3s2)cc([N+](=O)[O-])c1O [Compound 178] | completely inhibited | > 200 | – | – | – | – | – | IC50 [8]: > 200 µM
CCN(CC)c1ccc(C=C2SC(=S)NC2=O)cc1 [Compound 212] | completely inhibited | > 200 | – | – | – | – | – | IC50 ([1]; IC50 ([…]-50 µM)): 25 to 50 µM; IC50 [8]: > 200 µM; inhibition of E. coli DNA gyrase activities ([5]; 200 µM of compounds): completely inhibited
O=C1C=C(NCCc2cc(Br)c(O)c(Br)c2)C(=O)c2ncccc21 [Compound 232, 7-((2-(3,5-Dibromo-4-hydroxyphenyl)ethyl)amino)-5,8-quinolinedione] | inhibited | – | – | – | – | – | – | IC50 ([1]; IC50 (50-200 µM)): 50 to 200 µM; E. coli DNA gyrase-mediated DNA breaks and nicking [7]: cause DNA nicking; inhibition of E. coli DNA gyrase activities ([5]; 200 µM of compounds): completely inhibited
C[n+]1c(-c2ccc(/C=N/NC(=O)c3cccc(C(=O)N/N=C/c4ccc(-c5cn6ccccc6[n+]5C)cc4)c3)cc2)cn2ccccc21 [Compound 259] | – | > 200 | > 200 | 200 | > 200 | 2.6 | > 200 | –
C[n+]1c(-c2ccc(/C=N/NC(=O)c3cncc(C(=O)N/N=C/c4ccc(-c5cn6ccccc6[n+]5C)cc4)c3)cc2)cn2ccccc21 [Compound 260] | – | > 200 | > 200 | > 200 | > 200 | 92 | > 200 | –
CCCCSc1ccn2cc(-c3ccc(/C=N/NC(=O)c4ccc(C(=O)N/N=C/c5ccc(-c6cn7ccc(SCCCC)cc7[n+]6C)cc5)cc4)cc3)[n+](C)c2c1 [Compound 262] | – | > 200 | > 200 | > 200 | > 200 | 118 | 122 | –
C[n+]1c(-c2ccc(/C=N/NC(=O)c3ccc(C(=O)N/N=C/c4ccc(-c5cn6ccccc6[n+]5C)cc4)nc3)cc2)cn2ccccc21 [Compound 264] | – | > 200 | – | 100 | 13.5 | 2.1 | 6.2 | –
O=C(O)c1cc(O)c(O)c(O)c1 [gallic acid] | – | – | – | – | – | – | – | inhibition of E. coli DNA gyrase activities [1]: does not inhibit E. coli DNA gyrase up to 500 µM; IC50 [13]: > 500 µM; IC50 ([5]; Table 8, read-out: IC50 Gyrase Gel-based): > 500 µM
